Reference: patent US5324648A, “Substituted isocoumarins as serine protease inhibitors and anti-inflammatory agents” (Georgia Tech Research Corporation, priority 1992, dated 1994)

What was measured:
human granzyme A = target: T1, human granzyme A (Homo sapiens, UniProt P12544); assay: Inactivation rate of human granzyme A; type: biochemical; conditions: Table VII; pH 7.5, 25° C; [I] 0.4 to 45 μM; read-out: kobs/[I]
T1 construct: human cytotoxic lymphocyte granzyme A; endogenous in cells; host or cells: human cytotoxic lymphocytes
T1 sequence (P12544 29-262): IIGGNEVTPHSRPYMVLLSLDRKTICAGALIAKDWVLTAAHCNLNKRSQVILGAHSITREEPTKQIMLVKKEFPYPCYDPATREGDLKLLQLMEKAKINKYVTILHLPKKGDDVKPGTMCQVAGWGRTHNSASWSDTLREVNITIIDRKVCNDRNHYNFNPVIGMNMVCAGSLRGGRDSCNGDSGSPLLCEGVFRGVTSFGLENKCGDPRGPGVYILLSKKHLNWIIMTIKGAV
Procedure: (§1) Inactivation rates of serine proteases by substituted isocoumarins were measured by the incubation method. An aliquot of inhibitor (25 or 50 μl) in Me2 SO was added to a buffered enzyme solution (0.01-2.3 μM) to initiate the inactivation. Aliquots (50 μl) were withdrawn at various intervals and the residual enzymatic activity was measured. Me2 SO concentration in the reaction mixture was 8-12% (v/v). 0.1 Hepes, 0.01M CaCl2, pH 7.5 buffer was utilized for trypsin and coagulation enzymes. 0.1M Hepes, 0.5M NaCl, pH 7.5 was utilized for other serine proteases. The inhibitor concentrations are shown in all the tables. Peptide thioesters or peptide nitroanilides with appropriate sequence were used as substrates for various serine proteases. All peptide thioester hydrolysis rates were measured with assay mixtures containing 4,4'-dithiodipyridine (ε324 =19800M^-1 cm^-1; Grasetti & Murray, Arch. Biochem. Biophys. 119, pp 41-49 (1967)). Peptide 4-nitroanilide nitroanilide hydrolysis was measured at 410 nm (ε410 =8800M^-1 cm^-1; Erlanger et al., Arch. Biochem. Biophys. 95, pp 271-278 (1961)). First order inactivation rate constant (kobs) were obtained from plots of ln (vt /vo) vs time, and the correlation coefficients were greater than 0.98.
^a Inactivation rates were measured at 0.1M Hepes, 0.01M CaCl2,
pH 7.5, 8% Me2 SO and 25° C. by incubation method. ZArg-SBzl
(74-85 μM) was used as the substrate to monitor the residual enzymatic

complement protein B = complement protein B (Homo sapiens, UniProt P00751); assay: Inactivation rate of complement protein B; type: biochemical; conditions: for kinact/KI: Table II, pH 7.5, 25° C, [I] 0.19 to 1.25 mM, read-out: kobs/[I]
Procedure: as §1
(§2) ^a Conditions were 0.1M Hepes, 0.5M NaCl, pH 7.5, 8-10% Me2 SO
(§3) and 25° C. Inactivation rates were measured by incubation method.
(§4) Enzyme concentrations were as follows: protein D, 1-9 μM; C2, 0.7-1
(§5) μM; B, 1.8 μM; Bb, 0.3-0.8 μM; Cl^- s, 0.07 μM; Cl^-

[1] = Prothrombin time (PT), rabbit plasma
Procedure: ^a Plasma and inhibitor were incubated at 37° C. for 1 min.,
Dade thromboplastin reagent was then added.
^b Plasma and inhibitor were incubated at 37° C. for 3 min.,
Orthobrain thromboplastin reagent was then added.

C2a = target: T2, C2a (Homo sapiens, UniProt P06681); assay: Inactivation rate of complement fragment C2a; type: biochemical; conditions: Table II; pH 7.5, 25° C; [I] 0.19 to 1.25 mM; read-out: kobs/[I]
T2 construct: active fragments C2a, Bb
Procedure: as §1, §2
and 25° C. Inactivation rates were measured by incubation method. […]

Bb = target: T3, Bb (Homo sapiens, UniProt P00751); assay: Inactivation rate of complement fragment Bb; type: biochemical; conditions: Table II; pH 7.5, 25° C; [I] 0.05 to 1.25 mM; read-out: kobs/[I]
T3 construct: active fragments C2a, Bb
Procedure: as §1, §2, §3, §4, §5

human factor VIIa = target: T4, human factor VIIa (Homo sapiens, UniProt P08709); assay: Inactivation rate of human factor VIIa; type: biochemical; conditions: Table I; pH 7.5, 25° C; [I] 5 to 44 μM; read-out: kobs/[I]
T4 construct: human factor VIIa
T4 sequence (P08709 213-466 limits assumed): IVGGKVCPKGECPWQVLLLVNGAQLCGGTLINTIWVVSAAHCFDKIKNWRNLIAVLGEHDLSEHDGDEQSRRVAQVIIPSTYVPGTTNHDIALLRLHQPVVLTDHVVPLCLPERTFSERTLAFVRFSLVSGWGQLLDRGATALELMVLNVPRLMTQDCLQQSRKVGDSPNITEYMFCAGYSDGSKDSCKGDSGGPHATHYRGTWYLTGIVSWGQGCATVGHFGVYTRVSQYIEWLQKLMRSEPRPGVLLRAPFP
T4 sequence (P08709 61-212 partner limits assumed): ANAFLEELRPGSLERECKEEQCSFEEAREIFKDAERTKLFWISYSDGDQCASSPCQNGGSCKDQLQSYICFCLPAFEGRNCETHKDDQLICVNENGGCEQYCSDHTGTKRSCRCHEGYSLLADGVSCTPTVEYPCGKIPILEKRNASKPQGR

[2] = Spontaneous hydrolysis in human plasma; type: in vitro ADME; conditions: for half-life: human plasma, read-out: t1/2 for spontaneous hydrolysis
[3] = Spontaneous hydrolysis in rabbit plasma; type: in vitro ADME; conditions: for half-life: rabbit plasma, read-out: t1/2 for spontaneous hydrolysis
[4] = Activated partial thromboplastin time (APTT), rabbit plasma
human thrombin = target: T5, human thrombin (Homo sapiens, UniProt P00734); assay: Inactivation rate of human thrombin; type: biochemical; conditions: Table VIII; pH 7.5, 25° C; [I] 1.2-54 μM; read-out: kobs/[I]
T5 construct: human thrombin
How it was run: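 Incubation method: enzyme (0.01-2.3 μM) mixed with inhibitor in 0.1M Hepes, 0.01M CaCl2, pH 7.5, 8% Me2SO, 25° C; residual activity sampled over time with peptide thioester or 4-nitroanilide substrates. kobs from ln(vt/vo) vs time plots.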

human skin chymase = target: T6, human skin chymase (Homo sapiens, UniProt P23946); assay: Inactivation rate of human skin chymase; type: biochemical; conditions: Table V; pH 7.5, 25° C; [I] 0.41 to 0.53 mM; read-out: kobs/[I]
T6 construct: human skin chymase; from tissue; host or cells: human skin
Procedure: as §1
(§6) ^a Inactivation rates were measured at 0.1M Hepes, 0.5M NaCl, pH 7.5,
(§7) 8-12% Me2 SO and 25° C. by incubation method. An aliquot of […]

[5] = target: T7, rat mast cell protease II (Rattus norvegicus, UniProt P00770); assay: Inactivation rate of rat mast cell protease II; type: biochemical; conditions: Table V; pH 7.5, 25° C; [I] 0.007 to 0.013 mM; read-out: kobs/[I]
T7 construct: rat mast cell protease II; from tissue; host or cells: rat mast cells (by the enzyme's name only)
Procedure: as §1, §6, §7

human lung chymase = target: T8, human lung chymase (Homo sapiens, UniProt P23946); assay: Inactivation rate of human lung chymase; type: biochemical; conditions: Table V; pH 7.5, 25° C; [I] 0.38 mM; read-out: kobs/[I]
T8 construct: human lung chymase; from tissue; host or cells: human lung
Procedure: as §1, §6, §7

pig plasma [6] = assay: Prothrombin time (PT), pig plasma
pig plasma [7] = assay: Activated partial thromboplastin time (APTT), pig plasma; conditions: [I] 16 μM

Chain of complement protein B (P00751 26-764): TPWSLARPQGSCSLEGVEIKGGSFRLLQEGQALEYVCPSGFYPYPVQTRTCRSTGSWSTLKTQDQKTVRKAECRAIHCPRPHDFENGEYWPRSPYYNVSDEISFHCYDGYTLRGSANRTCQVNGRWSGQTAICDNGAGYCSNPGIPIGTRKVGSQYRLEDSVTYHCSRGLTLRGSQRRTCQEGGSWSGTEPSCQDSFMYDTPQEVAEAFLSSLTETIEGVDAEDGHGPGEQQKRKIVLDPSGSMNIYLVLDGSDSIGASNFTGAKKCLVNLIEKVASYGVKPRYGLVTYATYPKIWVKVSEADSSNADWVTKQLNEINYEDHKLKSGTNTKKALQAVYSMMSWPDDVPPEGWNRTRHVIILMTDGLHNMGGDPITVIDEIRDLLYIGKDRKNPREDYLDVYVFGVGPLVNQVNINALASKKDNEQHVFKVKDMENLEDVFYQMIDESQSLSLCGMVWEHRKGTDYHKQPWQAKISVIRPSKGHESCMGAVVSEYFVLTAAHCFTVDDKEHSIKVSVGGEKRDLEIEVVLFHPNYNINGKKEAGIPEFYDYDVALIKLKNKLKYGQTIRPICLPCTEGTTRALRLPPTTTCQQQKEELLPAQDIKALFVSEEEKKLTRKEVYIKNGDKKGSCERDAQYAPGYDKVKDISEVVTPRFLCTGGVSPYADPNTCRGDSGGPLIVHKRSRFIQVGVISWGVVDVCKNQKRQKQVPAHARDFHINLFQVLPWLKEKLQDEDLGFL
T3 sequence (P00751 260-764 limits assumed): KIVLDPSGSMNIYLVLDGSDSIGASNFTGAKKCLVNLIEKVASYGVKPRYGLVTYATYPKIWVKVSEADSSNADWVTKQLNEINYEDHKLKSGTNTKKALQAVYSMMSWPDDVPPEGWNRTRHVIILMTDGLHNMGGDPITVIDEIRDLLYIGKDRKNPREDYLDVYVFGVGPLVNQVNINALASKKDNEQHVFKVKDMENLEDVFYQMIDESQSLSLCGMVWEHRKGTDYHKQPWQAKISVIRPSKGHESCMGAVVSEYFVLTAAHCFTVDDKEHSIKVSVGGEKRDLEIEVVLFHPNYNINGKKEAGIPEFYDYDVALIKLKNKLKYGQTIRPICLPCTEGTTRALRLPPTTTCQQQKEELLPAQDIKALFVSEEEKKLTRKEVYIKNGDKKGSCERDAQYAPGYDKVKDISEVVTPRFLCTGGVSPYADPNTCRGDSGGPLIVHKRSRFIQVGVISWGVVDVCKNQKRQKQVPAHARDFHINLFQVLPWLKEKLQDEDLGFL
T7 sequence (P00770 21-247): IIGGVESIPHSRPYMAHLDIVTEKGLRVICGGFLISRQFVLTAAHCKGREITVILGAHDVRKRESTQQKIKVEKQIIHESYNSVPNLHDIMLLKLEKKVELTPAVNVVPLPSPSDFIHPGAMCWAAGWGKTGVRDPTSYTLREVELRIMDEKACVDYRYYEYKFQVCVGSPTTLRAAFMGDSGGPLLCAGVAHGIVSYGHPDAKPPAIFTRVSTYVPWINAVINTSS
T2 sequence (P06681 244-752 limits assumed): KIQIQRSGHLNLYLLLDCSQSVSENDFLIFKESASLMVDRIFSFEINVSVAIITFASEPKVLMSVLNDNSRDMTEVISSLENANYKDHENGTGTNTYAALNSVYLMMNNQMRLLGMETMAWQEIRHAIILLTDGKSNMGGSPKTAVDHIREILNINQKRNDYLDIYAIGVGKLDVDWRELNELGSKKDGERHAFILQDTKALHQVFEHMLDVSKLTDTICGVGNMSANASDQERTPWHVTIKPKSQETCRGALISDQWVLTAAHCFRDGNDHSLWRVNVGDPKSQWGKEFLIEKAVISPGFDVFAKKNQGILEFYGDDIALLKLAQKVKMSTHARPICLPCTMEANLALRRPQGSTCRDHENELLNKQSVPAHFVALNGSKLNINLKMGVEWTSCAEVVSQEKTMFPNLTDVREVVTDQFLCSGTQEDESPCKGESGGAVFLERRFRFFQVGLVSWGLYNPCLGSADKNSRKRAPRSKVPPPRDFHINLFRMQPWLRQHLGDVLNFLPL
T6 sequence (P23946 22-247): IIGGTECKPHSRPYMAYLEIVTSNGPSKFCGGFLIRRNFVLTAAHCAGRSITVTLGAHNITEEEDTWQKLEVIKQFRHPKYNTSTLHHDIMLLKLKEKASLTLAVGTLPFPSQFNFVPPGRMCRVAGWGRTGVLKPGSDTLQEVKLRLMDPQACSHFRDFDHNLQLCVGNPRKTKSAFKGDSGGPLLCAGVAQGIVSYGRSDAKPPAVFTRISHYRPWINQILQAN
T8 sequence (P23946 22-247): as above

SMILES: O=c1oc(Cl)c(Cl)c2ccccc12 [3,4-dichloroisocoumarin, reference compound]
- kinact/KI (human granzyme A): 50 M⁻¹ s⁻¹
- inhibition of protein B (in words) (complement protein B): do not show any inhibition
- PT ([1]; [I] 33 μM, 3 min, Orthobrain thromboplastin): 14.3 s

SMILES: N=C(N)SCCOc1oc(=O)c2ccccc2c1Cl [3-(2-isothiureidoethoxy)-4-chloroisocoumarin]
- kinact/KI (C2a): 1.4 M⁻¹ s⁻¹
- kinact/KI (complement protein B): 13 M⁻¹ s⁻¹
- kinact/KI (Bb): 15 M⁻¹ s⁻¹

SMILES: NCCCOc1oc(=O)c2ccccc2c1Cl [3-(3-aminopropoxy)-4-chloroisocoumarin]
- kinact/KI (human granzyme A): 2010 M⁻¹ s⁻¹

SMILES: N=C(N)SCCCOc1oc(=O)c2ccccc2c1Cl [3-(3-isothiureidopropoxy)-4-chloroisocoumarin]
- kinact/KI (C2a): 0.8 M⁻¹ s⁻¹
- kinact/KI (human granzyme A): 18400 M⁻¹ s⁻¹
- kinact/KI (complement protein B): 0.4 M⁻¹ s⁻¹
- kinact/KI (human factor VIIa): 450 M⁻¹ s⁻¹
- half-life [2]: 0.5 min
- kinact/KI (Bb): 0.8 M⁻¹ s⁻¹

SMILES: N=C(N)SCCCOc1oc(=O)c2cc(N)ccc2c1Cl [7-amino-4-chloro-3-(3-isothiureidopropoxy)isocoumarin]
- stability in rabbit plasma (in words) [3]: fairly stable
- half-life [3]: 140 min
- kinact/KI (human granzyme A): 6750 M⁻¹ s⁻¹
- PT ([1]; [I] 33 μM, 1 min, Dade thromboplastin): 13.7 s
- PT ([1]; [I] 131 μM, 1 min, Dade thromboplastin): 62.0 s
- kinact/KI (human factor VIIa): 430 M⁻¹ s⁻¹
- APTT ([4]; [I] 33 μM): 68.6 s
- kinact/KI (human thrombin): 760 M⁻¹ s⁻¹
- stability in human plasma (in words) [2]: fairly stable
- half-life [2]: 165 min

SMILES: CCOc1oc(=O)c2cc(NC(=N)N)ccc2c1Cl [7-guanidino-3-ethoxy-4-chloroisocoumarin, 7-guanidino-4-chloro-3-ethoxyisocoumarin]
- half-life [3]: 4.2 min
- kinact/KI (human skin chymase): 33 M⁻¹ s⁻¹
- kinact/KI (human granzyme A): 6850 M⁻¹ s⁻¹
- kinact/KI (complement protein B): 167 M⁻¹ s⁻¹
- PT ([1]; [I] 15 μM, 1 min, Dade thromboplastin): 14.2 s
- PT ([1]; [I] 31 μM, 1 min, Dade thromboplastin): 27.4 s
- PT ([1]; [I] 31 μM, 3 min, Orthobrain thromboplastin): 17.2 s
- PT ([1]; [I] 124 μM, 3 min, Orthobrain thromboplastin): > 120 s
- kinact/KI [5]: 1100 M⁻¹ s⁻¹
- kinact/KI (human factor VIIa): 2200 M⁻¹ s⁻¹
- APTT ([4]; [I] 31 μM): 60.5 s
- kinact/KI (human lung chymase): 540 M⁻¹ s⁻¹
- half-life [2]: 8.2 min
- kinact/KI (Bb): 95 M⁻¹ s⁻¹

SMILES: N=C(N)Nc1ccc2c(Cl)c(OCCc3ccccc3)oc(=O)c2c1 [7-guanidino-4-chloro-3-(2-phenylethoxy)isocoumarin]
- kinact/KI (human skin chymase): 22 M⁻¹ s⁻¹
- kinact/KI [5]: 4100 M⁻¹ s⁻¹
- half-life [2]: 4.5 min
- kinact/KI (Bb): 58 M⁻¹ s⁻¹

SMILES: COc1oc(=O)c2cc(NC(=N)N)ccc2c1Cl [7-guanidino-4-chloro-3-methoxyisocoumarin]
- kinact/KI (complement protein B): 285 M⁻¹ s⁻¹
- half-life [2]: 6.7 min
- kinact/KI (Bb): 74 M⁻¹ s⁻¹

SMILES: N=C(N)SCCOc1oc(=O)c2cc(NC(=O)Nc3ccccc3)ccc2c1Cl [PhNHCONH-CiTEtOIC, 7-(phenylcarbamoylamino)-4-chloro-3-(2-isothiureidoethoxy)isocoumarin]
- PT (pig plasma [6]; [I] 16 μM): 28.5 s
- PT (pig plasma [6]; [I] 32 μM): 58.3 s
- kinact/KI (human thrombin): 22400 M⁻¹ s⁻¹
- APTT (pig plasma [7]): > 120 s
